Reference: ChEMBL document CHEMBL3507680, “University of Dundee, Gates Library screen for HepG2 cell viability”

assay: Human HepG2 cell viability assay in 384 well format; type: toxicity, cell-based; design: dose 125 nL, time 70.5 hour; cytotoxicity at 70.5 h: concentration not given beside the values; details: HepG2 cells, read-out: Inhibition

| Structure (SMILES) | cytotoxicity at 70.5 h [%] |
| --- | --- |
| O=C(C1CCOCC1)N1CC[C@@H](N2CCOCC2)[C@@H]1Cc1ccccc1 | 5.57 |
| CN(CC(=O)N(C)C1CCCCC1)Cc1nc2c(cnn2C)c(=O)[nH]1 | 8.15 |
| O=C(NCCn1ccnc1)c1ccn(-c2ccc(F)cc2)n1 | -2.38 |
| CC(C)c1nc2c(n1C)CCN(Cc1nc(-c3cccs3)no1)C2 | -9.62 |
| CNC(=O)[C@@H]1C[C@@H](N)CN1C(=O)CCSCc1ccccc1 | -4.11 |
| CCCC(=O)N(C)Cc1nc(N2CCCC2)ncc1-c1ccncc1 | -11 |
| O=C(NC[C@H]1OC[C@@H](NCc2ccccn2)[C@@H]1O)c1ccc(F)cc1 | 2.33 |
| Cn1ccnc1CN1CCCN(C(=O)c2ccc3[nH]cnc3c2)CC1 | -8.02 |
| CCc1nc(CN2CCCCC2C(N)=O)cs1 (stereo not drawn) | -2.28 |
| CNC(=O)NC(=O)CN(CC(C)O)c1ccccc1 (stereo not drawn) | -3.36 |
| CCN1CCCC1CNC(=O)c1cc(COc2ccccc2F)[nH]n1 (stereo not drawn) | -4.57 |
| O=C(NCc1ccco1)[C@H]1C[C@@H]2CCN(c3nncs3)C[C@H]2O1 | -9.42 |
| Cc1ccc(C2CSCCN2C(=O)c2ccccn2)cc1 (stereo not drawn) | -13.2 |
| CN1CC[C@H]2OCC[C@@H](C(=O)NCc3ccco3)[C@@H]2C1 | 9.03 |
| Cc1ncc(-c2ccncc2)c(C2CCN(C(=O)c3ccno3)CC2)n1 | -7.69 |
| CS(=O)(=O)NCc1cnc2n1CCN(Cc1cccs1)CC2 | -4.2 |
| CCN(CC)Cc1ccc(C(=O)N2CCN(CC(C)O)CC2)cc1 (stereo not drawn) | -4.2 |
| O=C(c1ccc(Cl)cc1)N1CCn2c(nn(-c3ccncc3)c2=O)C1 | -8.19 |
| Cc1ccc(C(=O)N2C[C@@H]3CCCO[C@@H]3[C@H](N(C)Cc3ccco3)C2)o1 | 28.7 |
| Cc1ccccc1CNC(=O)CN1CCN(Cc2nccn2C)CC1 | -20.5 |
| CC(C)NC(=O)C1CN(C(=O)Nc2ccccc2)CC12CCOCC2 (stereo not drawn) | 22 |
| N#Cc1nccnc1NC1CCN(c2ccccc2Br)C1 (stereo not drawn) | 11.1 |
| C[C@@H]1CN2C[C@H](O)CC2CN1Cc1ccncc1 (stereo partly drawn) | -3.16 |

| Structure (SMILES) | cytotoxicity at 70.5 h [%] |
| --- | --- |
| CC(C)c1cnc(CN(C)C2CCN(CCc3cnn(C)c3)C2)o1 (stereo not drawn) | -5.18 |
| Cc1ccc(C)c(NC(=O)Cn2cc(I)cn2)c1 | -13.2 |
| COC[C@@H]1CCC[C@]12CN(Cc1cccc(C)n1)CCO2 | -14.3 |
| Cc1cc(C)c(C(=O)N2CCOC(CCN(C)C)C2)o1 (stereo not drawn) | -14.2 |
| CC(C)c1noc(-c2ccc(N(C)C3CCOCC3)nc2)n1 | 10.8 |
| Cc1ccc(N2CCC3(CCN(C(=O)c4ccoc4)CC3)CC2)nn1 | -4.56 |
| CCc1nn(-c2cc(Oc3ccccc3)nc(C)n2)c(N)c1C#N | 2.22 |
| CN(C)c1nc(NCCCN2CCc3ccccc32)ncc1F | 38.5 |
| Cc1cc(CC(=O)NCc2ccnc(OCC(F)(F)F)c2)no1 | 34 |
| N#Cc1cccc(NC(=O)N2CCCC(N3CCCC3=O)C2)c1 (stereo not drawn) | 0.781 |
| CCS(=O)(=O)N1CCN(CC2CC2)c2ncccc2C1 | -2.09 |
| COCc1nc(CNC2CSCCSC2)no1 | -11.5 |
| Cn1c(=O)n(C)c2nc(Cl)c(CC(=O)c3ccccc3)n2c1=O | -4.74 |
| CCN(CC)Cc1nc2c(o1)CN(C(=O)c1ccncc1F)C2 | -4.3 |
| Cc1nc(C(=O)N2CCCC(c3cccc(-n4ccnc4)n3)C2)co1 (stereo not drawn) | 4.94 |
| O=C(NCCCn1ccnc1)NCC(c1ccco1)N1CCCC1 (stereo not drawn) | 5.06 |
| CCOc1ccc(Oc2cc(CN)ccn2)cc1 | -27.6 |
| Cn1cccc(NC(=O)COc2ccc(Cl)cc2)c1=O | -1.21 |
| CCOc1cc(C)nc(N2CCN(C(=O)c3cnc[nH]3)CC2)n1 | -0.152 |
| CN(Cc1cc(Br)cn1C)C(=O)c1cc(Cl)ccn1 | 30.9 |
| CCC1COCCN1C(=O)CNC(=O)c1ccoc1C (stereo not drawn) | -5.54 |
| Cc1cccc(CN2C(=O)CCC23CCN(C(=O)c2ccco2)CC3)n1 | 0.736 |
| O=C(C1CCCCC1)N1C[C@@H]2CCNC[C@@H]21 | -4.1 |

| Structure (SMILES) | cytotoxicity at 70.5 h [%] |
| --- | --- |
| NC(=O)NC(=O)CCSCc1cc(F)cc2cccnc12 | -29.1 |
| Cc1nccn1CC1CCCN(C(=O)Cc2ccsc2)C1 (stereo not drawn) | -17.7 |
| COC(=O)CN(C(=O)c1ccc(Cl)cn1)c1cccc(F)c1 | -0.717 |
| N[C@@H]1CCN(Cc2ccccc2CS(=O)(=O)c2ccccc2)C[C@H]1O | -8.1 |
| CC(Cc1cccnc1)Nc1ncnc2cccc(F)c12 (stereo not drawn) | 1.44 |
| O=C(c1ccccn1)N1CCN(C(c2ccccc2)C(F)(F)F)CC1 (stereo not drawn) | 11.9 |
| CCSCCC(=O)NCc1cc2n(n1)CCN(C(=O)N(C)C)C2 | -6.68 |
| CN(C)C(=O)CN1CCC(c2cncc(-c3cccc(Cl)c3)n2)CC1 | -7.08 |
| CNc1nc2c(s1)C(c1ccc(F)cc1Cl)CC(=O)N2 (stereo not drawn) | 2.52 |
| CO[C@H]1COCCN(Cc2c[nH]c3ccccc23)C1 | -4 |
| C[S+]([O-])c1nncn1CC(=O)c1ccc2c(c1)CCO2 (stereo not drawn) | -2.98 |
| CCOCC(=O)N1CCC(c2nccn2C)CC1 | 2.76 |
| O=C(NCCc1cc2nc(-c3ccncc3)ccn2n1)C1CC1 | -6.41 |
| Cc1ccc(-c2cn3c(n2)CO[C@@H](CNCc2nccs2)C3)cc1 | -2.93 |
| c1ccc(N2CCOCC3(CCCN(c4nccs4)C3)C2)nc1 (stereo not drawn) | 4.3 |
| Cc1ccc(-n2ncc(C(=O)NC3CCCCC3)c2N)cc1 | -2.62 |
| Cc1cc(C)n(CC2CCCN2C(=O)c2nccc3ccccc23)n1 (stereo not drawn) | -0.984 |
| Cc1ccccc1CC(=O)N1CCCn2cncc2C1 | -9.13 |
| Cc1noc(C(C)N2CCN(Cc3nc(C)c(C)o3)CC2)n1 (stereo not drawn) | -3.69 |
| Cc1nc(C(=O)N2CC[C@@]3(C[C@@H](NS(C)(=O)=O)CCO3)C2)cs1 | -5.85 |
| Cc1sc2nc(SC(C)c3nc(C(C)C)no3)nc(N)c2c1C (stereo not drawn) | 3.75 |
| CC(C)n1ccnc1C1CCCN(c2cc(C(=O)NC3CC3)ccn2)C1 (stereo not drawn) | 12.2 |
| CN1CC(c2n[nH]c(=O)n2-c2cccc(Cl)c2)CC1=O (stereo not drawn) | -12.8 |

| Structure (SMILES) | cytotoxicity at 70.5 h [%] |
| --- | --- |
| CN(Cc1ccco1)Cc1ccccc1CNC(=O)c1c[nH]nn1 | -1.03 |
| CC(CNC(=O)N1CCS(=O)(=O)CC1)Cc1cccs1 (stereo not drawn) | -1.72 |
| Cc1cc(C(=O)NCc2cccn2C)nn1C | 15.6 |
| Cn1cccc1C(=O)N1C[C@H]2CC[C@@H]1CN(Cc1cscn1)C2 | 1.29 |
| COCC(=O)NCCc1nc(N(C)C)ncc1-c1ccncc1 | -6.86 |
| COc1cc(C2C3=C(COC3=O)Nc3[nH]nc(C)c32)cc(Br)c1O (stereo not drawn) | 2.06 |
| c1cc2c(cc1C1CCCN1Cc1nnnn1C1CC1)OCCO2 (stereo not drawn) | 13.7 |
| COCCOc1ccc(NC(=O)N(C(C)C)C2CC2)cn1 | -3.25 |
| COc1ncccc1NC(=O)N1CCC(C(=O)NC(C)C)CC1 | -5.13 |
| COCCNC(=O)C[C@@H]1COC[C@H]2CN(CC3CCOCC3)C[C@@H]12 | 1.35 |
| O=C1CC[C@]2(CC[C@@H](NC3CCOCC3)CC2)N1Cc1ccccc1 | -2.63 |
| CNC(=O)C1(C)CN(c2nc(C)cc(C)n2)CCO1 (stereo not drawn) | 1.44 |
| COC1COC2(CCN(C(=O)c3ccccc3F)CC2)C1 (stereo not drawn) | -4.84 |
| COCCn1ccnc1CN1CCc2[nH]cnc2C1c1ccccn1 (stereo not drawn) | -11.2 |
| O=C(C1NCCc2[nH]cnc21)N1CCC2(CC1)CNc1ccccc12 (stereo not drawn) | -11.9 |
| Cc1nc(CN2CCCN(Cc3nc4c(F)cccc4[nH]3)CC2)no1 | -10.4 |
| CS(=O)(=O)N1CCc2c(cccc2NC(=O)CC(F)(F)F)C1 | -1.76 |
| O=C(O)c1coc(COc2cccc3cnccc23)n1 | -7.63 |
| O=C(CCc1ccccc1F)NS(=O)(=O)c1ccc2c(c1)OCCCO2 | -3.8 |
| c1ccc2cc(OCCN3CCOC(Cn4cncn4)C3)ccc2c1 (stereo not drawn) | 27.8 |
| C[C@@H]1CN(C2Cc3ccccc3C2)CC[C@@]1(O)C1CCOCC1 | -10.1 |
| Cc1ccc(OCC(=O)NCC(F)(F)F)nc1 | -4.18 |
| Cc1nc(CN2C(=O)C[C@@H]3[C@@H]2CCN3C(=O)C2CCOCC2)cs1 | -8.18 |

| Structure (SMILES) | cytotoxicity at 70.5 h [%] |
| --- | --- |
| Cc1cc(C(=O)NCc2ccc(F)cc2)c2c(C3CCCN3)noc2n1 (stereo not drawn) | -6.52 |
| CCOC[C@@H]1CC[C@H]2[C@H](CCN2C(=O)c2cnccn2)O1 | 2.78 |
| O=C(CC1CC1)N1CCC2(CC1)C(=O)NCCN2Cc1ccccc1 | 10.6 |
| O=C(c1cnccn1)N1CCN2C[C@H](Oc3cccnc3)C[C@H]2C1 | 4.06 |
| CC(C)c1cc(C(=O)N2CCN(c3ccncc3)CC2)n(C)n1 | -11.9 |
| O=C1C[C@@H]2CCN(Cc3ccccc3)C[C@@H]2CCN1C1CCCCC1 | 6.87 |
| COc1ccc(C[C@H]2CNCC[C@H]2OC)cc1 | -6.44 |
| O=C([C@@H]1COC[C@H]2CN(C3CCOCC3)C[C@H]21)N1CCCCO1 | 18.7 |
| COc1ccc(COCC(O)CNC(=O)c2cccnc2)cc1 (stereo not drawn) | 32.7 |
| CC(C)N(CCO)C(=O)C1CCC(=O)N(Cc2ccc(Cl)cc2)C1 (stereo not drawn) | -4.75 |
| CCN(CC)C1CCN(C(=O)c2cc(CC(C)C)nn2CC)C1 (stereo not drawn) | 3.49 |
| O=C(Nc1ccccc1Oc1cccc(F)c1)C1CCS(=O)(=O)C1 (stereo not drawn) | -5.38 |
| O=c1cc(Cn2cncn2)nc2n1CCCN(CCN1CCCC1)C2 | -9.08 |
| O=C(NC1CCCN(c2ccc(OC(F)F)cc2)C1)c1cnc[nH]1 (stereo not drawn) | -11.2 |
| CN(C(=O)NC1CC1)C1CCN(c2ccc(Cl)cc2)CC1 | -7.5 |
| Cc1ccnc(NC(=O)c2cncc(C3CCNCC3)n2)c1 | -10.4 |
| CCCc1nnsc1C(=O)N1CCN(CC(C)O)CC1 (stereo not drawn) | -1.92 |
| CCC(C)c1ccc(NC(=O)C2CCN(C(=O)N(C)C)CC2)cc1 (stereo not drawn) | -4.2 |
| CCNc1ncc(C(=O)NCc2cccc(OC(F)(F)F)c2)cn1 | -16.5 |
| CC(C)c1ncc(Cl)c(C(=O)N2CCN(C3CC3)CC2)n1 | -7.86 |
| CCOC(=O)c1sc(NC(=O)C(C)(C)C)c(C#N)c1C | 41.6 |
